Some results are limits rather than exact numbers.

Tested on in one assay: not listed separately
The assay is described as follows: Dual-Cell β-Catenin Reporter Assay. Format: cell-based, Mouse. The settings on record: Mus musculus, category of IC50; luciferase signal reduced to 50% of DMSO control. The protocol: (§1) Dual-Cell β-Catenin Reporter Assay
(§2) Mouse L cells transfected to constitutively produce biologically active murine Wnt-3a, referred to as L-Wnt cells, were purchased from the American Type Culture Collection, ATCC, Manassas, VA (ATCC). These cells were cultured in DMEM supplemented with 10% FCS (Gibco/Invitrogen, Carlsbad, CA), 1% geneticin and 1% sodium pyruvate (Sigma) at 37° C. with 5% CO2. The cells were seeded into 96 well plates and treated with serial dilutions of compound diluted to 0.1% DMSO concentration. After 24 hours, cell supernatants were transferred to a 96 well plate previously seeded with Leading Light® Wnt Reporter Cells, stably transfected with a luciferase gene under control of Wnt pathway response elements. After a further 24 hours, cells are treated with One-glo luciferase assay system (Promega, Madison, WI) and the luminescent signal read by envision. The IC50 of the compound is determined as the concentration that reduces the induced luciferase signal to 50% of the DMSO control.
(§3) The category “+” refers to compounds with an IC50 of >100 μM. The category “++” refers to compounds with an IC50 of 5 to 100 μM. The category “+++” refers to compounds with an IC50<5 μM.
Turning to `Cc1c(-c2ccnc(C(F)(F)F)c2)ncn1CC(=O)Nc1ccc(-c2cnccn2)cn1` [compound 74], the IC50 is less than 5 nM.
`Cc1cc(-c2nn(CC(=O)Nc3ccc(-c4cnccn4)cn3)cc2C)ccn1` [compound 75] had an IC50 of less than 5 nM.
`Cc1cc(-c2cnn(CC(=O)Nc3ccc(-c4cnccn4)cn3)c2)ccn1` [compound 3] gave a half-inhibitory concentration (IC50) of 5 to 100 nM.
`Cc1c(-c2ccnc(C(F)(F)F)c2)ncn1CC(=O)Nc1ccc(-c2ccc(C#N)cc2)cn1` [compound 107] showed an IC50 of less than 5 nM.
Still for that read-out and setting: the value for `CC(C)(C)OC(=O)N1CCN(c2ccc(NC(=O)Cn3cnc(-c4ccnc(C(F)(F)F)c4)c3)nc2)CC1` [compound 6] was less than 5 nM; that for `Cc1nn(CC(=O)Nc2ccc(-c3ccc(C#N)cc3)cn2)c(C)c1-c1ccnc(C(F)(F)F)c1` [compound 54] was less than 5 nM.

The assay is the same for the next values; noted with them: Mus musculus, luciferase signal reduced to 50% of DMSO control.
Compound `Cc1c(-c2ccnc(C(F)(F)F)c2)ncn1CC(=O)Nc1ccc(-c2cnccn2)cn1` [compound 74] displayed an IC50 of 0.05 nM.
Still for that read-out and setting: as for `Cc1cc(-c2nn(CC(=O)Nc3ccc(-c4cnccn4)cn3)cc2C)ccn1` [compound 75], the figure is 0.61 nM.
Take `Cc1cc(-c2cnn(CC(=O)Nc3ccc(-c4cnccn4)cn3)c2)ccn1` [compound 3]: half-maximal inhibition (IC50) was put at 12.2 nM.
Still for that read-out and setting: as for `Cc1c(-c2ccnc(C(F)(F)F)c2)ncn1CC(=O)Nc1ccc(-c2ccc(C#N)cc2)cn1` [compound 107], the figure is 0.05 nM; as for `CC(C)(C)OC(=O)N1CCN(c2ccc(NC(=O)Cn3cnc(-c4ccnc(C(F)(F)F)c4)c3)nc2)CC1` [compound 6], 0.91 nM.
Still for that read-out and setting: the value for `Cc1nn(CC(=O)Nc2ccc(-c3ccc(C#N)cc3)cn2)c(C)c1-c1ccnc(C(F)(F)F)c1` [compound 54] was 0.14 nM.

The next assay relates to L-Wnt cells (murine Wnt-3a) / Leading Light Wnt Reporter Cells (luciferase under control of Wnt pathway response elements). As to the kind of experiment: Dual-Cell β-Catenin Reporter Assay. As to conditions: category of IC50; luciferase signal reduced to 50% of DMSO control. Format: cell-based, Mouse. The protocol:
as §1, §2, §3
Turning to `Cc1nc(-c2ccnc(C(F)(F)F)c2)c(C)n1CC(=O)Nc1ccc(-c2cnccn2)cn1` [compound 72], the IC50 is less than 5 nM.
Same read-out and setting: as for `Cc1nn(CC(=O)Nc2ccc(-c3cnccn3)cn2)c(C)c1-c1cnn(C(C)C)c1` [compound 62], the figure is 5 to 100 nM; as for `Cc1nn(CC(=O)Nc2ccc(-c3cnccn3)cn2)cc1-c1ccnc(C(F)(F)F)c1` [compound 56], less than 5 nM; as for `Cc1noc(C)c1-c1cnn(CC(=O)Nc2ccc(-c3cnccn3)cn2)c1` [compound 36], 5 to 100 nM.
In the case of `Cc1ncsc1-c1cnn(CC(=O)Nc2ccc(-c3cnccn3)cn2)c1` [compound 25], the IC50 was 5 to 100 nM.
For the compound `Cc1nn(CC(=O)Nc2ccc(-c3cnccn3)cn2)c(C)c1-c1ccnc(N(C)C)c1` [compound 100], the IC50 is 5 to 100 nM.
The same measure, in the same setting: the value for `O=C(Cn1cc(-c2ccnc(C(F)(F)F)c2)cn1)Nc1ccc(-c2cnccn2)cn1` [compound 17] was less than 5 nM; that for `Cc1nn(CC(=O)Nc2ccc(C3=CCS(=O)(=O)CC3)cn2)c(C)c1-c1ccnc(C(F)(F)F)c1` [compound 63] was 5 to 100 nM; that for `Cc1nn(CC(=O)Nc2ccc(-c3ccncc3)cn2)c(C)c1-c1ccnc(C(F)(F)F)c1` [compound 60] was 5 to 100 nM.
`Cc1nn(CC(=O)Nc2ccc(C3CCOCC3)cn2)c(C)c1-c1ccnc(C(F)(F)F)c1` [compound 69] displayed an IC50 of 5 to 100 nM.
As for `Cc1ncc(-c2cnn(CC(=O)Nc3ccc(-c4cnccn4)cn3)c2)s1` [compound 29], the IC50 was greater than 100 nM.
In turn, `O=C(Cn1cc(-c2cnsc2)cn1)Nc1ccc(-c2cnccn2)cn1` [compound 27] gave an IC50 of 5 to 100 nM.
In turn, `O=C(Cn1cc(-c2ccnc(C(F)(F)F)c2)cn1)Nc1ccc(-c2cncnc2)cn1` [compound 34] yielded an IC50 of less than 5 nM.
Same read-out and setting: as for `Cc1nn(CC(=O)Nc2ccc(-c3cncnc3)cn2)c(C)c1-c1ccnc(C(F)(F)F)c1` [compound 35], the figure is less than 5 nM; as for `Cc1nn(CC(=O)Nc2ccc(-c3cnccn3)cn2)c(C)c1-c1ccnc(F)c1` [compound 61], less than 5 nM; as for `Cc1cc(-c2nc(C)n(CC(=O)Nc3ccc(-c4cnccn4)cn3)c2C)ccn1` [compound 86], less than 5 nM.
Still for that read-out and setting: as for `Cc1nn(CC(=O)Nc2ccc(-c3cncnc3)cn2)c(C)c1C1CC(C)OC(C)C1` (stereo not shown) [compound 96], the figure is 5 to 100 nM.
Still for that read-out and setting: as for `Cc1c(-c2ccnc(C(F)(F)F)c2)ncn1CC(=O)Nc1ccc(-c2ccnc(C#N)c2)cn1` [compound 109], the figure is 5 to 100 nM; as for `O=C(Cn1cc(-c2ccnc(C(F)F)c2)cn1)Nc1ccc(-c2cnccn2)cn1` [compound 21], less than 5 nM; as for `Cc1nn(CC(=O)Nc2ccc(-c3ncccn3)cn2)c(C)c1C1CC(C)OC(C)C1` (stereo not shown) [compound 97], 5 to 100 nM.
Compound `Cc1cc(-c2cn(CC(=O)Nc3ccc(-c4cncnc4)cn3)nc2C)ccn1` [compound 91] returned an IC50 of less than 5 nM.
`COc1ccc(-c2c(C)nn(CC(=O)Nc3ccc(-c4cnccn4)cn3)c2C)cn1` [compound 64] returned an IC50 of 5 to 100 nM.
Same read-out and setting: as for `Cc1nn(CC(=O)Nc2ccc(-c3cnccn3)cn2)c(C)c1-c1ccc(N(C)C)nc1` [compound 101], the figure is 5 to 100 nM; as for `Cn1nccc1-c1cn(CC(=O)Nc2ccc(-c3cnccn3)cn2)cn1` [compound 32], greater than 100 nM.
`O=C(Cn1cc(-c2ccncn2)cn1)Nc1ccc(-c2cnccn2)cn1` [compound 30] displayed an IC50 greater than 100 nM.
Still for that read-out and setting: as for `Cc1nn(CC(=O)Nc2ccc(-c3cccnc3)cn2)c(C)c1-c1ccnc(C(F)(F)F)c1` [compound 52], the figure is less than 5 nM; as for `Cc1cc(-c2cnn(CC(=O)Nc3ccc(N4CCN(C(=O)OC(C)(C)C)CC4)cn3)c2)ccn1` [compound 8], 5 to 100 nM.
`Cc1nn(CC(=O)Nc2ncc(-c3cnccn3)cc2C#N)c(C)c1-c1ccnc(C(F)(F)F)c1` [compound 80]: the IC50 lay in the range of 5 to 100 nM.
Same read-out and setting: the value for `O=C(Cn1cnc(-c2ccnc(C(F)(F)F)c2)c1)Nc1ccc(-c2cncnc2)nc1` [compound 11] was greater than 100 nM; that for `Cn1nccc1-c1csc(CC(=O)Nc2ccc(-c3cnccn3)cn2)c1` [compound 31] was 5 to 100 nM; that for `Cc1nn(CC(=O)Nc2ccc(-c3cnccn3)cn2)c(C)c1C1=CCOCC1` [compound 48] was less than 5 nM.
Same read-out and setting: the value for `Cc1nn(CC(=O)Nc2ccc(-c3cnccn3)cn2)c(C)c1-c1ccnc(N)c1` [compound 79] was 5 to 100 nM; that for `Cc1nn(C(C)C(=O)Nc2ccc(-c3cnccn3)cn2)c(C)c1C1=CCOCC1` (stereo not shown) [compound 81] was less than 5 nM.
The same measure, in the same setting: as for `Cc1nn(CC(=O)Nc2ccc(-c3cnccn3)cn2)c(C)c1-c1cn(C)nc1C(F)(F)F` [compound 70], the figure is 5 to 100 nM; as for `Cc1nn(CC(=O)Nc2ccc(-c3cnccn3)cn2)c(C)c1-c1ccnn1C1CCCC1` [compound 47], greater than 100 nM; as for “tert-butyl 4-[1-[2-oxo-2-[(5-pyrazin-2-yl-2-pyridyl)amino]ethyl]pyrazol-4-yl]-3,6-dihydro-2H-pyridine-1-carboxylate [Example 16]”, 5 to 100 nM.

The assay is the same for the next values; noted with them: luciferase signal reduced to 50% of DMSO control.
For the compound `Cc1nn(CC(=O)Nc2ccc(-c3cncnc3)cn2)c(C)c1-c1ccnc(C(F)(F)F)c1` [compound 35], the IC50 was 0.34 nM.

The values above are taken from US12202826B2, “N-pyridinyl acetamide derivatives as inhibitors of the Wnt signaling pathway” (Redx Pharma PLC, priority 2014, dated 2025).
